A short description of the data set: Incorporation (solubilization) of hydrophobic active ingredients into aqueous solution of heparin hydrophobized with cholic acid (HEP19CHO), dissolution method. The data set is classed as physicochemical. To be noted: for increase of quantity in solution: HEP19CHO (Cp=8.6 mg/ml) after 6 days of incorporation, versus water (FIG. 4). The method, then: An example of a method of incorporation by direct dissolution is described below. 30 mg of hydrophobized heparin are introduced into a tube and 3 ml of distilled water are added thereto. After dissolution, a large excess of active ingredient (15 to 30 mg) is introduced into the mixture.
A phase of stirring the mixture obtained is carried out by means of a magnetic stirrer bar for several days. The mixture is then centrifuged and the supernatant is passed through a 0.45 μm filter. The quantity of active ingredient solubilized in the solutions of hydrophobized heparin may be determined by UV/visible spectroscopy or by HPLC.
The nonsolubilized active ingredient is removed after filtration of the solutions on a membrane having a porosity of 0.45 μm. The quantity of active ingredient in solution is then determined. Having determined the quantities solubilized in water and those dissolved in the hydrophobic domains, it is then possible to calculate a partition coefficient hydrophobic domains/water which is called Log P′ by analogy with Log P.
Indeed, the relative solubility of molecules between an oily phase and an aqueous phase is described by the partition coefficient P which represents the distribution of the molecules between two solvents, generally water and octanol. The use of its logarithm, log P, is often preferred. […] Likewise for Log P′ which expresses the ratio of the solubilities of the active agent in water and in the solution of hydrophobized heparin.
The incorporation of active ingredients was essentially carried out by the dissolution method. In this method, the compound to be incorporated is placed in solid form in a tube containing water or a colloidal solution of hydrophobized heparin, at the concentration Cp (mg/ml).
The mixing is performed with stirring at room temperature for various times. The compound to be incorporated remains at saturating concentration in the medium. At the end of the incorporation period, the tubes are subjected to a centrifugation step and the supernatants are filtered on 0.45 μm filters and assayed. Control solutions (water or nonhydrophobized heparin) are treated in the same manner.
The quantity of active ingredient incorporated into the various media is quantified by HPLC and/or by measuring the UV absorbance.
Thus, the incorporation is expressed in milligram of active ingredient per gram of polymer (mg/g P) or in micromole of active ingredient per gram of polymer (μmol/g P). This incorporation level is calculated by taking the ratio between the concentration of the active ingredient in solution and the concentration of the polymer. […] The difference in concentration of active ingredients in water and in a solution of hydrophobized heparin represents the quantity of active ingredient effectively present in hydrophobic micro-domains formed by the grouping together of cholic acid residues.

These results are taken from patent publication US20070141158A1, “Amphiphilic heparin derivative formed by coupling a heparin with a bile acid” (ETHYPHARM, priority 2003, published 2007).

As for `NC(=O)N1c2ccccc2C=Cc2ccccc21` [Carbamazepine], the “increase of quantity in solution” value is on record as “increased ten fold”. Further, the “level of incorporation into the hydrophobic domains” value (HEP19CHO 8 mg/ml, after 3 days) came out at 70 mg/g P. Besides, the “gain in solubility relative to water” value (HEP19CHO calcium salt, 8 mg/ml, after 3 days (FIG. 3)) is given as “exceeds 500%”. The compound further registered a concentration of carbamazepine present in the hydrophobic domains (HEP19CHO solution 8 mg/ml, after 3 days, HEP19CHO solution minus aqueous phase) of 560 µg/mL. Under “HEP19CHO, Table 5 molecules”, the “affinity for the hydrophobic domains (among the molecules tested)” value is “highest affinity for the hydrophobic domains”.

Take `CCC(C)n1ncn(-c2ccc(N3CCN(c4ccc(OCC5COC(Cn6cncn6)(c6ccc(Cl)cc6Cl)O5)cc4)CC3)cc2)c1=O` (stereo not shown) [Itraconazole]: the “increase of quantity in solution” value is on record as above 2000 fold. The “times as soluble in a solution of hydrophobized heparin as in water” value (HEP19CHO solution versus water) is given as “more than 2000 times”.
